The target in assay [1] is T1, Peptidyl-glycine alpha-amidating monooxygenase (Homo sapiens, UniProt P19021).
T1 sequence (P19021 whole entry): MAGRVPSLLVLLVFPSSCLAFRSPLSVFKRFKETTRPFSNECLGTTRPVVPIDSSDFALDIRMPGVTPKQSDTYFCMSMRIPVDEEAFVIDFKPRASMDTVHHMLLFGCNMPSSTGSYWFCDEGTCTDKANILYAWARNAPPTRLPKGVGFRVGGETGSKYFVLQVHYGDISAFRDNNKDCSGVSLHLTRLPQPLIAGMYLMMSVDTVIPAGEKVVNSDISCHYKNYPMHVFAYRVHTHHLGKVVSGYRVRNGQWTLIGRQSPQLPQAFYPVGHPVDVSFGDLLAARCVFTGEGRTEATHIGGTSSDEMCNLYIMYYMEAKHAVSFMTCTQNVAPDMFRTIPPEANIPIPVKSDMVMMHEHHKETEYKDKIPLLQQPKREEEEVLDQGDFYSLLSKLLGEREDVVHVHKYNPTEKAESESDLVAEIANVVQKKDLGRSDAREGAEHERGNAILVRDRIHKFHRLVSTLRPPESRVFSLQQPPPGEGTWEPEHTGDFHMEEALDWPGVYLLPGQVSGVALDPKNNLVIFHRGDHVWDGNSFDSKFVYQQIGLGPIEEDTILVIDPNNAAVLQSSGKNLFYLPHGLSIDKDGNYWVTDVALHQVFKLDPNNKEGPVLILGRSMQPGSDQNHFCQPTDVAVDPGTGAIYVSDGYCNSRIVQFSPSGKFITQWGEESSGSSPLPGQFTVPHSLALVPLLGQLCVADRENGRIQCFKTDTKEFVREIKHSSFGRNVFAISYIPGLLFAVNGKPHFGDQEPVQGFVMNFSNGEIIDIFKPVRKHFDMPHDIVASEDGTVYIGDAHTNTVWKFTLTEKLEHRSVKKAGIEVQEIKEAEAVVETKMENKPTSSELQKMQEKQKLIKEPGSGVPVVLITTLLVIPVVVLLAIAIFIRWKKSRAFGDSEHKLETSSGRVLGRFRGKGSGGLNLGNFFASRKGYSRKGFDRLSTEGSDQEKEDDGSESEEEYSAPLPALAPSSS
Kind of assay: Competitive inhibition of secreted PAM in human DMS53 cell culture medium using as(R)-Tyr-(S)-Val-Gly as substrate after 2 hrs by HPLC analysis. Also noted: species or system DMS-53.

The target in assay [2] is T1, Peptidyl-glycine alpha-amidating monooxygenase. In words: Competitive inhibition of PAM in human DMS53 cells using as(R)-Tyr-(S)-Val-Gly as substrate after 2 hrs by HPLC analysis. The format is cell-based, DMS-53.

The structures appear in SMILES notation.

In general, IC50 refers to the concentration at which inhibition is half-maximal. Low values mean greater potency, high ones weaker potency.

In the case of `C[C@H](N)C(=O)N1CCC[C@H]1C(=O)OCC(=O)O`, the concentration for half-maximal inhibition (IC50) came out at 290 µM in assay [1] and 370 µM in assay [2].

These data come from ChEMBL document CHEMBL2203217, “Prohormone-substrate peptide sequence recognition by peptidylglycine α-amidating monooxygenase and its reflection in increased glycolate inhibitor potency” (Bioorg Med Chem Lett, 2012).
